Assay results taken from ChEMBL document CHEMBL3822432, “Antibacterial and anticancer activity of a series of novel peptides incorporating cyclic tetra-substituted C(α) amino acids” (Bioorg Med Chem, 2016).
Values after ≈ are worked out from the molar mass of the structure shown. Non-standard residues stand in square brackets, D forms with d. Residues, ends and D or L forms follow the SMILES beside them. ξ: configuration not given here. Ac6c = NC1(C(=O)O)CCCCC1; ξDap = NCC(N)C(=O)O

Tests used:
[1] = tested on: Klebsiella aerogenes; experiment: Antibacterial activity against carbapenem-resistant Enterobacter aerogenes NCDC819-56 ATCC 13048 by two fold serial dilution method; format: functional
[2] = tested on: Acinetobacter baumannii; experiment: Antibacterial activity against Acinetobacter baumannii B5W71 ATCC 15149 by two fold serial dilution method; format: functional
[3] = Antibacterial activity against Salmonella enterica LT2 Typhimurium ATCC 15277 by two fold serial dilution method; format: functional
[4] = tested on: Pseudomonas aeruginosa; experiment: Antibacterial activity against Pseudomonas aeruginosa Boston 41501 ATCC 27853 by two fold serial dilution method; format: functional
[5] = Antibacterial activity against carbapenem-resistant Klebsiella pneumoniae K6 ATCC 700603 by two fold serial dilution method; format: functional, Klebsiella pneumoniae 700603
[6] = tested on: Enterococcus faecalis; experiment: Antibacterial activity against Enterococcus faecalis Portland ATCC 29212 by two fold serial dilution method; format: functional; settings: ATCC 29212 Portland
[7] = tested on: Staphylococcus aureus; experiment: Antibacterial activity against methicillin-resistant Staphylococcus aureus USA 300 NRS 384 by two fold serial dilution method; format: functional
[8] = Antibacterial activity against Clostridium difficile VIP 10463 ATCC 43255 by two fold serial dilution method; format: functional, Clostridium difficile ATCC 43255; settings: Clostridioides difficile
[9] = tested on: Staphylococcus aureus; experiment: Antibacterial activity against Staphylococcus aureus Seattle 1945 ATCC 25923 by two fold serial dilution method; format: functional
[10] = tested on: Streptococcus pneumoniae; experiment: Antibacterial activity against Streptococcus pneumoniae 262 ATCC 49619 by two fold serial dilution method; format: functional
[11] = tested on: Neisseria gonorrhoeae; experiment: Antibacterial activity against Neisseria gonorrhoeae F-18 ATCC 49226 by two fold serial dilution method; format: functional
[12] = Antibacterial activity against Bacillus anthracis Ames NR-3838 by two fold serial dilution method; format: functional, Bacillus anthracis str. Ames
[13] = Antibacterial activity against Francisella tularensis SCHU S4 NR-643 by two fold serial dilution method; format: functional
[14] = Antibacterial activity against Yersinia pestis CO92 NR641 by two fold serial dilution method; format: functional
[15] = tested on: Burkholderia pseudomallei; experiment: Antibacterial activity against Burkholderia pseudomallei AHS 1 NCTC 8016 by two fold serial dilution method; format: functional
[16] = tested on: Mycobacterium tuberculosis; experiment: Antibacterial activity against Mycobacterium tuberculosis H37Ra ATCC 2517 by two fold serial dilution method; format: functional

| SMILES | MIC [7] [µM] | MIC [8] [µM] | MIC [10] [µM] | MIC [11] [µM] | MIC [12] [µM] | MIC [13] [µM] | MIC [14] [µM] | MIC [15] [µM] | MIC [16] [µM] | further results |
| --- | --- | --- | --- | --- | --- | --- | --- | --- | --- | --- |
| CC(=O)NCC(=O)N[C@@H](Cc1ccccc1)C(=O)NC1(C(=O)NCC(=O)NC2(C(=O)NC(CN)C(=O)NC3(C(=O)NCC(=O)NC4(C(=O)N[C@@H](Cc5ccccc5)C(=O)NC5(C(=O)NCC(=O)NC6(C(=O)NCC(=O)NC(CN)C(=O)NC7(C(=O)NC(CN)C(=O)NC(CN)C(=O)NC(CN)C(=O)NC(CN)C(N)=O)CCCCC7)CCCCC6)CCCCC5)CCCCC4)CCCCC3)CCCCC2)CCCCC1 (stereo not given in full) (Ac-GF[Ac6c]G[Ac6c][ξDap][Ac6c]G[Ac6c]F[Ac6c]G[Ac6c]G[ξDap][Ac6c][ξDap][ξDap][ξDap][ξDap]-NH2) | 6.16 (≈ 12.5 µg/mL) | 3.08 (≈ 6.26 µg/mL) | 24.6 (≈ 50 µg/mL) | 6.16 (≈ 12.5 µg/mL) | 6.16 (≈ 12.5 µg/mL) | 49.2 (≈ 99.9 µg/mL) | > 49 | > 49 | 24.6 (≈ 50 µg/mL) | MIC [1]: 1.54 µM (≈ 3.13 µg/mL); MIC [2]: > 48 µM; MIC [3]: 24.6 µM (≈ 50 µg/mL); MIC [4]: 3.08 µM (≈ 6.26 µg/mL); MIC [5]: 3.08 µM (≈ 6.26 µg/mL); MIC [6]: 3.08 µM (≈ 6.26 µg/mL); MIC [9]: 6.16 µM (≈ 12.5 µg/mL) |
| CN(C)[C@@H]1C(O)=C(C(N)=O)C(=O)[C@@]2(O)C(O)=C3C(=O)c4c(O)cccc4[C@@](C)(O)[C@H]3C[C@@H]12 [TETRACYCLINE] | – | – | – | 2.25 (≈ 1 µg/mL) | – | – | – | 4.5 (≈ 2 µg/mL) | – | – |
| C[C@H]1c2cccc(O)c2C(=O)C2=C(O)[C@]3(O)C(=O)C(C(N)=O)=C(O)[C@@H](N(C)C)[C@@H]3[C@@H](O)[C@@H]21 [DOXYCYCLINE] | – | – | – | – | 0.87 (≈ 0.387 µg/mL) | 1.1 (≈ 0.489 µg/mL) | 1.1 (≈ 0.489 µg/mL) | – | – | – |
| CN[C@@H]1[C@H](O[C@H]2[C@H](O[C@H]3[C@H](O)[C@@H](O)[C@H](N=C(N)N)[C@@H](O)[C@@H]3N=C(N)N)O[C@@H](C)[C@]2(O)C=O)O[C@@H](CO)[C@H](O)[C@H]1O [STREPTOMYCIN] | – | – | – | – | – | – | – | – | 3.4 (≈ 1.98 µg/mL) | – |
| CN[C@@H](CC(C)C)C(=O)N[C@H]1C(=O)N[C@@H](CC(N)=O)C(=O)N[C@H]2C(=O)N[C@H]3C(=O)N[C@H](C(=O)N[C@@H](C(=O)O)c4cc(O)cc(O)c4-c4cc3ccc4O)[C@H](O)c3ccc(c(Cl)c3)Oc3cc2cc(c3O[C@H]2O[C@@H](CO)[C@H](O)[C@@H](O)[C@@H]2O[C@@H]2C[C@@](C)(N)[C@@H](O)[C@@H](C)O2)Oc2ccc(cc2Cl)[C@H]1O | 2.7 (≈ 3.91 µg/mL) | 0.17 (≈ 0.246 µg/mL) | 1.99 (≈ 2.88 µg/mL) | – | – | – | – | – | – | – |
